Results taken from US20250034600A1, “ONIUM SALT COMPOSITIONS, METHODS FOR PRODUCING CELLULOSE HYDROLYSATES, ALCOHOLS AND/OR ORGANIC ACIDS IN THE PRESENCE OF ONIUM SALT COMPOSITIONS” (KOEI CHEMICAL COMPANY, LIMITED, priority 2023, published 2025).

Legend:
[1] = system: yeast (Saccharomyces cerevisiae); assay: Antibacterial test (minimum inhibitory concentration, MIC value) against yeast; type: cell-based; settings: lower MIC = greater inhibition
Protocol: An antibacterial test (measurement of minimum inhibitory concentration (MIC value)) of 1,3-bis(3-methoxypropyl)imidazolium acetate and 1-ethyl-3-methylimidazolium acetate against yeast (Saccharomyces cerevisiae) was carried out. A lower MIC value indicates a greater degree of inhibition of enzymatic and/or microbial activity.

dry yeast = assay: Fermentation of glucose with dry yeast to ethanol in the presence of the onium salt; type: cell-based; settings: 0.20 g onium salt, 0.5 g glucose, 9.6 g water, 0.05 g dry yeast, stand overnight; ethanol quantified by GC
Protocol: (§1) 0.20 g of 1,3-bis(3-methoxypropyl)imidazolium acetate, 0.5 g of glucose (β-D-glucose (including α-D-glucose), produced by Tokyo Chemical Industry Co., Ltd.), and 9.6 g of ultrapure water were placed in a sample tube. The resulting mixture was stirred until the glucose was completely dissolved. After the glucose had been completely dissolved, 0.05 g of dry yeast was added and the resulting mixture was allowed to stand overnight. After filtering off the insoluble matter, the amount of ethanol produced was quantified by GC (gas chromatography) to calculate the ethanol yield.
as §1, with “1,3-bis(methoxyethoxypropyl)imidazolium acetate ([(MeOEtOPr)2Im][AcO]),” for “1,3-bis(3-methoxypropyl)imidazolium acetate,”, “added. The” for “added and the”
as §1, with “1,3-bis(ethoxypropyl)imidazolium acetate ([(EtOPr)2Im][AcO]),” for “1,3-bis(3-methoxypropyl)imidazolium acetate,”
The same procedure as in Example 2 was repeated except that 1-ethyl-3-methylimidazolium acetate was used in place of the 1,3-bis(3-methoxypropyl)imidazolium acetate used in Example 2.

[2] = system: cellulase (produced by Sigma); assay: Enzymatic hydrolysis of microcrystalline cellulose with cellulase in the presence of the onium salt; type: biochemical; settings: 1.00 g microcrystalline cellulose in 5.00 g onium salt; 95.0 g water, 10 μL cellulase, 4 days; calculated from cellulose residue
Protocol: 5.00 g of 1,3-bis(3-methoxypropyl)imidazolium acetate was placed in a flask and maintained at 50° C. 1.00 g of microcrystalline cellulose (Avicel (registered trademark) PH-101) was added at 50° C., and the resulting mixture was stirred until visual observation confirmed that microcrystalline cellulose had been completely dissolved. 95.0 g of ultrapure water and 10 μL of cellulase (produced by Sigma) were added, and the resulting mixture was stirred for 4 days. The remaining cellulose residue was recovered by filtration, and the glucose conversion rate was calculated.
The same procedure as in Example 1 was repeated except that 1-ethyl-3-methylimidazolium acetate was used in place of the 1,3-bis(3-methoxypropyl)imidazolium acetate used in Example 1.

[3] = system: cellulase (produced by Sigma) and dry yeast; assay: Cellulose dissolution, cellulase hydrolysis and dry yeast fermentation to ethanol in one pot in the presence of the onium salt; type: cell-based; settings: 2.00 g onium salt, 0.50 g microcrystalline cellulose, 80° C. 3 h; 38.0 g water, 20 μL cellulase, 50° C. 10 h; 0.50 g dry yeast, 30° C. 7 h; GC
Protocol: 2.00 g of 1,3-bis(3-methoxypropyl)imidazolium acetate was placed in a sample tube, and 0.50 g of microcrystalline cellulose (Avicel (registered trademark) PH-101) was added. The resulting mixture was heated and stirred at 80° C. for 3 hours. After confirming by visual observation that the microcrystalline cellulose had been […], 38.0 g of ultrapure water and 20 μL of cellulase (produced by Sigma) were added. The resulting mixture was stirred at 50° C. for 10 hours. 0.50 g of dry yeast was then added and the resulting mixture was gently stirred at 30° C. After 7 hours, the insoluble matter was filtered off, and the amount of ethanol produced was quantified by GC (gas chromatography) to calculate the ethanol yield.
The same procedure as in Example 5 was repeated, except that 1-ethyl-3-methylimidazolium acetate was used in place of the 1,3-bis(3-methoxypropyl)imidazolium acetate used in Example 5.
The same procedure as in Example 5 was repeated, except that the 1,3-bis(3-methoxypropyl)imidazolium acetate used in Example 5 was not added and 2.00 g of ultrapure water was used in place of 2.00 g of 1,3-bis(3-methoxypropyl)imidazolium acetate.

| MIC value [1] [%] | Glucose conversion rate [2] [%] | SMILES | Ethanol yield (dry yeast) [%] | Ethanol yield [3] |
| --- | --- | --- | --- | --- |
| 0.5 | 8 | CC(=O)[O-].CCn1cc[n+](C)c1 [1-Ethyl-3-methylimidazolium acetate, 1-ethyl-3-methylimidazolium acetate, reference compound] | 14.2 | 16.0 |
| – | – | CC(=O)[O-].CCOCCCn1cc[n+](CCCOCC)c1 [[EtOPr]2Im] [AcO], 1,3-bis(ethoxypropyl)imidazolium acetate] | 46.38 | – |
| – | – | CC(=O)[O-].COCCOCCCn1cc[n+](CCCOCCOC)c1 [[MeOEtOPr]2Im] [AcO], 1,3-bis(methoxyethoxypropyl)imidazolium acetate] | 53.77 | – |
| 5 | 73 | CC(=O)[O-].COCCCn1cc[n+](CCCOC)c1 [[MeOPr]2Im] [AcO], 1,3-bis(3-methoxypropyl)imidazolium acetate] | 66.64 | 51.5 |
